Experimental data as given in patent US20250090538A1, “TLR7/8-ANTAGONIST FOR TREATING SJÖGREN'S SYNDROME OR MIXED CONNECTIVE TISSUE DISEASE” (Novartis AG, priority 2022, published 2025).
Entries after “also recorded” stand apart in the source; their conditions may differ.

Legend:
TLR7 and TLR8 = experiment: Selectivity for TLR7 and TLR8 over other TLRs and the IL-1 receptor on human PBMCs; format: cell-based
[1] = First-in-human study, pharmacokinetics in healthy volunteers (plasma concentration; SAD, MAD, food effect); format: in vivo; settings: for increase of exposure (plasma concentration) with dose: healthy volunteers
Method: (§1) A first-in-human (FIH) study was conducted to assess the safety and tolerability, pharmacokinetics (PK) and pharmacodynamics (PD) of single and multiple doses of compound of Formula (I) as twice daily (bid) oral administration in healthy volunteers, to support further clinical development of compound of Formula (I) in autoimmune diseases. This study also explored the effect of food intake.
(§2) First-in-human study in healthy volunteers (HVs) included the following: • Part A was a randomized, subject-blinded, placebo-controlled, single ascending dose (SAD) study with 10 cohorts. Each cohort received in an ascending order a 1 mg, 3 mg, 10 mg, 20 mg, 40 mg, 80 mg, 160 mg, 320 mg, 640 mg or 1000 mg single dose of compound of Formula (I). • Part B was a randomized, subject-blinded, placebo-controlled, multiple ascending dose (MAD) study with 5 cohorts. Each cohort received in an ascending order a 25 mg, 50 mg, 100 mg, 200 mg or 400 mg dose of compound of Formula (I) b.i.d. for 14 days. • Part C was a randomized, open-label, two-sequence, two-period crossover study with a 200 mg dose of compound of Formula (I) administered each underfed or fasted condition, for the food effect evaluation.

[2] = First-in-human study, safety and tolerability in healthy volunteers; format: in vivo; settings: healthy subjects
Method: as §1, §2

TLR7 = molecular target: T1, TLR7 (Homo sapiens, UniProt Q9NYK1); experiment: Ex-vivo stimulation of whole blood from SAD and MAD cohorts with a TLR7/8 agonist, B cell activation (CD69); format: cell-based
T1 construct: endogenous in cells; host or cells: B cells in whole blood of healthy human subjects (SAD and MAD cohorts)
T1 sequence (Q9NYK1 27-1049): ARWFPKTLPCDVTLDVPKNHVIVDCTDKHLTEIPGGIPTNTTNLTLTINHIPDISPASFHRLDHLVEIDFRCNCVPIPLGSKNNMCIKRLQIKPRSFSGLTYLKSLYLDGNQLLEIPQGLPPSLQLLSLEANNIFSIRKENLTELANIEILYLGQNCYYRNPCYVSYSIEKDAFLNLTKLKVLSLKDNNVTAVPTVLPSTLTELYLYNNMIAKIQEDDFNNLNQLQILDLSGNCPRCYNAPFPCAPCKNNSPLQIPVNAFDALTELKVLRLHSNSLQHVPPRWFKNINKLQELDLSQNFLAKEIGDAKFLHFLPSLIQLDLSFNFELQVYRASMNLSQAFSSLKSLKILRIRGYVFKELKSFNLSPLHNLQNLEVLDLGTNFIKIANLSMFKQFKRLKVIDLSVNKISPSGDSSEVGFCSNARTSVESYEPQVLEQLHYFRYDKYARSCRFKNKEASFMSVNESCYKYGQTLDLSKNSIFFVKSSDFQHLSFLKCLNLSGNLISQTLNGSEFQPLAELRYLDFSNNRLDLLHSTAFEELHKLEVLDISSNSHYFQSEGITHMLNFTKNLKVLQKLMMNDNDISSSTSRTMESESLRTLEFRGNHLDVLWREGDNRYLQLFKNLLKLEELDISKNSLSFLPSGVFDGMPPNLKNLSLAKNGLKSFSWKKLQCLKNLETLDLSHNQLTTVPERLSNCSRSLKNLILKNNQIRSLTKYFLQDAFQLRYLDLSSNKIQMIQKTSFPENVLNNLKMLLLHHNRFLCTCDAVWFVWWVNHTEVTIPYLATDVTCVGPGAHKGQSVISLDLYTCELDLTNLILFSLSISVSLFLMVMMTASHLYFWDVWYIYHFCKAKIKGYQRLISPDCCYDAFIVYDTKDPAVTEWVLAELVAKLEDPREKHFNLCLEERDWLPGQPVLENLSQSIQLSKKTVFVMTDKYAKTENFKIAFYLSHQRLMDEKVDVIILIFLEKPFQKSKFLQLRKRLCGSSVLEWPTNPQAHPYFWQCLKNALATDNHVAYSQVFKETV
Text: (§3) CD69 and TNF are biomarkers intended to inform the pharmacodynamic (PD) effect of compound of Formula (I). Whole blood samples from the SAD and MAD cohorts were ex-vivo stimulated with a TLR7/8 agonist to increase levels of CD69 and TNF.

TLR8 = molecular target: T2, TLR8 (Homo sapiens, UniProt Q9NR97); experiment: Ex-vivo stimulation of whole blood from SAD and MAD cohorts with a TLR7/8 agonist, monocyte TNF production; format: cell-based
T2 construct: endogenous in cells; host or cells: monocytes in whole blood of healthy human subjects (SAD and MAD cohorts)
T2 sequence (Q9NR97 27-1041): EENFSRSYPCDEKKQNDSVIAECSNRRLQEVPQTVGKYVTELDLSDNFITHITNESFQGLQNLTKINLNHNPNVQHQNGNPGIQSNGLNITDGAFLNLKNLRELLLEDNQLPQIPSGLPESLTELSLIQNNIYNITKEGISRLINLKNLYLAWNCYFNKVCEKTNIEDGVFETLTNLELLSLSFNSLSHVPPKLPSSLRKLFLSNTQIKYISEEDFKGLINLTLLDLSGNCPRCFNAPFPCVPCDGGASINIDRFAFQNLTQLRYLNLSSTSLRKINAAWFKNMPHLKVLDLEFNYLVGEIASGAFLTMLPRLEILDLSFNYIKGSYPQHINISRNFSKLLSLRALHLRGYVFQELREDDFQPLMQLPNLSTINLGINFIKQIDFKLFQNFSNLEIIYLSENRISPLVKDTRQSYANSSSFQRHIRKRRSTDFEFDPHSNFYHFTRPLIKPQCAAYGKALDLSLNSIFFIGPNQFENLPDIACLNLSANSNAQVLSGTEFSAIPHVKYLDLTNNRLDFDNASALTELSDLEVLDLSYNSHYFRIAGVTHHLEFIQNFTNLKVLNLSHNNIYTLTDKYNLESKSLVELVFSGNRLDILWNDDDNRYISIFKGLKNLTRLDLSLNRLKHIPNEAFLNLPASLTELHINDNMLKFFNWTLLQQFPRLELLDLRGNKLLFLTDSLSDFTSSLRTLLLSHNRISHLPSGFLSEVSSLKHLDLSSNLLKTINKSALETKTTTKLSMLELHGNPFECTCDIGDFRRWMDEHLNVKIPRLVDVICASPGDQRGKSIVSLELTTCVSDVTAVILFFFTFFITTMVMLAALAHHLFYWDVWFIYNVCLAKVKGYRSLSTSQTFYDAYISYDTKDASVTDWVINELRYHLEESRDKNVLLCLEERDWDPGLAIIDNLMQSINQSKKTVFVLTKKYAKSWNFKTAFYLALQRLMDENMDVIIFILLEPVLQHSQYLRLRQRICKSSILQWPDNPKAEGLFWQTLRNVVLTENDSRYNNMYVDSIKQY
Text: as §3

[3] = 200 mg b.i.d. for 14 days, FIH study
[4] = ex-vivo stimulated whole blood, across the dose range (SAD and MAD)

Cmax timing under fed condition ([1]; 200 mg dose, fed condition, FIG. 3): slightly delayed Cmax | food effect on exposure ([1]; 200 mg dose, fed vs fasted crossover, FIG. 3): No relevant food effect | half-life ([1]; plasma, oral, human, FIH study, maximum value, read-out: terminal half-life): ≤ 14.4 h | increase of exposure (plasma concentration) with dose ([1]; single ascending dose, oral, FIG. 1): dose-proportional for the higher doses | TLR7 pathway inhibition (TLR7; [3]): full pathway inhibition | B cell activation (upregulation of CD69) following TLR7 stimulation (TLR7; [4]): inhibited B cell activation | TLR8 pathway inhibition (TLR8; [3]): full pathway inhibition
Structure (SMILES): Cc1cc(N2CCc3c(c(C)nn3CC34CCC(NC(=O)[C@@H]5COCCN5)(CC3)CC4)C2)c2cnn(C)c2n1 [compound of Formula (I), (S)-N-(4-((5-(1,6-dimethyl-1H-pyrazolo[3,4-b]pyridin-4-yl)-3-methyl-4,5,6,7-tetrahydro-1H-pyrazolo[4,3-c]pyridin-1-yl)methyl)bicyclo[2.2.2]octan-1-yl)morpholine-3-carboxamide]
selectivity for TLR7 and TLR8 over other TLRs and the IL-1 receptor (TLR7 and TLR8): highly selective | increase of exposure (plasma concentration) with dose ([1]; multiple ascending dose b.i.d. for 14 days, FIG. 2): dose-proportional at steady state for the lower doses | safety and tolerability ([2]; multiple administrations of up to 400 mg b.i.d. for 14 days): safe and well tolerated; also recorded: safe and well-tolerated | safety and tolerability ([2]; single oral administration of up to 1000 mg): safe and well tolerated; also recorded: safe and well-tolerated | activation of human monocytes to produce TNF following TLR8 stimulation (TLR8; [4]): inhibited activation of human monocytes to produce TNF
